Results taken from patent US20190159450A1, “PYRIDINE-BASED COMPOUND INCLUDING ISOXAZOLINE RING AND USE THEREOF AS HERBICIDE” (MOGHU RESEARCH CENTER LTD., priority 2016, published 2019).

Columns and labels:
Type in all cases: in vivo
[1] = test system: maize; assay: Herbicidal activity test, pre-weeds emergence treatment (crop damage); settings: assessed 2 to 3 weeks after spraying, scale 0-10 (0: no effect, 10: complete death)
Method: (§1) A rectangular plastic pot with a surface area of 300 cm^2 was filled with sandy loam soil and mixed soil at a ratio of 1:1, and four kinds of weeds including Quamoclit pennata, Abutilon theophrasti Medicus, and Aeschynomene indica, Xanthium strumarium were sown therein. In another pot made in the same way, three kinds of crop seeds including maize, wheat, and rice were sown. The pots were watered and one day later, a medicament was sprayed thereon. The spraying was performed by using a track sprayer (R&D Sprayer, USA) equipped with Teejet 8002EVS (Spraying Systems Co., USA) nozzle, and the spray amount was controlled to be 1000 L/ha. A spray solution was prepared by dissolving the compound of each example or a control material in acetone, and then, adding the same amount of 0.1% (v/v) tween 20 aqueous solution thereto. The spray amount was 200 g/ha. The pots were placed in a greenhouse in which the temperature was maintained at 25° C. to 30° C. during the day and 15° C. to 25° C. during the night, and was regularly watered. After 2 to 3 weeks from the spraying of the compounds or the control material, the efficacy and the damages on each weed and each crop were assessed according to the scale of 0-10 (0: no effect, 10: complete death) scale and the results are shown in Table 3 below.
(§2) Pots for crops and weeds were prepared in the same manner as the test method illustrated in Table 3, and three kinds of weeds selected from Quamoclit pennata, Abutilon theophrasti Medicus, and Aeschynomene indica, Xanthium strumarium were used.

[2] = test system: rice; assay: as above; settings: assessed 2 to 3 weeks after spraying, scale 0-10 (0: no effect, 10: complete death)
Method: as §1, §2

[3] = test system: wheat; assay: as above; settings: assessed 2 to 3 weeks after spraying, scale 0-10 (0: no effect, 10: complete death)
Method: as §1, §2

[4] = test system: Abutilon theophrasti Medicus; assay: Herbicidal activity test, pre-weeds emergence treatment; settings: assessed 2 to 3 weeks after spraying, scale 0-10 (0: no effect, 10: complete death)
Method: as §1, §2

[5] = test system: Aeschynomene indica; assay: as above; settings: assessed 2 to 3 weeks after spraying, scale 0-10 (0: no effect, 10: complete death)
Method: as §1, §2

[6] = test system: Quamoclit pennata; assay: as above; settings: assessed 2 to 3 weeks after spraying, scale 0-10 (0: no effect, 10: complete death)
Method: as §1, §2

[7] = test system: Xanthium strumarium; assay: as above; settings: assessed 2 to 3 weeks after spraying, scale 0-10 (0: no effect, 10: complete death)
Method: as §1, §2

[8] = test system: maize; assay: Herbicidal activity test, post-weeds emergence treatment (crop damage); settings: assessed after 2 to 3 weeks, 0: no effect, 10: complete death
Method: as §1
(§3) Pots for crops and weeds were prepared in the same manner as in Experimental Example 1, and then, when the crops and the weeds were raised up to 2 weeks roughly on a third-leaf stage, the compounds and the control material were sprayed thereon in the same manner as described above. The spray amount was 200 g/ha. After 2 to 3 weeks from the spraying of the test substance or the control substance, the efficacy and the damages on each weed and each crop were assessed according to the scale of 0-10 (0: no effect, 10: complete death) scale.
(§4) Pots for crops and weeds were prepared in the same manner as the test method illustrated in Table 5, and four kinds of weeds selected from Quamoclit pennata, Abutilon theophrasti Medicus, and Aeschynomene indica, Xanthium strumarium were used. The spray amount was 200 g/ha for crops and 50 g/ha for weeds.

[9] = test system: rice; assay: as above; settings: assessed after 2 to 3 weeks, 0: no effect, 10: complete death
Method: as §1, §3, §4

[10] = test system: wheat; assay: as above; settings: assessed after 2 to 3 weeks, 0: no effect, 10: complete death
Method: as §1, §3, §4

[11] = test system: Abutilon theophrasti Medicus; assay: Herbicidal activity test, post-weeds emergence treatment; settings: assessed after 2 to 3 weeks, 0: no effect, 10: complete death
Method: as §1, §3, §4

[12] = test system: Aeschynomene indica; assay: as above; settings: assessed after 2 to 3 weeks, 0: no effect, 10: complete death
Method: as §1, §3, §4

[13] = test system: Quamoclit pennata; assay: as above; settings: assessed after 2 to 3 weeks, 0: no effect, 10: complete death
Method: as §1, §3, §4

[14] = test system: Xanthium strumarium; assay: as above; settings: assessed after 2 to 3 weeks, 0: no effect, 10: complete death
Method: as §1, §3, §4

[15] = spray amount 200 g/ha for crops, Table 6
[16] = spray amount 50 g/ha for weeds, Table 6

Row | Structure (SMILES) | PRE ZEAMX (maize), damage score ([1]; Table 4, 200 g/ha) | PRE ORYSA (rice), damage score ([2]; Table 4, 200 g/ha) | PRE TRZAW (wheat), damage score ([3]; Table 4, 200 g/ha) | PRE ABUTH (Abutilon theophrasti Medicus), efficacy score ([4]; Table 4, 200 g/ha) | PRE AESIN (Aeschynomene indica), efficacy score ([5]; Table 4, 200 g/ha) | PRE IPOAN (Quamoclit pennata), efficacy score ([6]; Table 4, 200 g/ha) | PRE XANST (Xanthium strumarium), efficacy score ([7]; Table 4, 200 g/ha) | ZEAMX (maize) damage, scale of 0-10 [8, 15] | ORYSA (rice) damage, scale of 0-10 [9, 15] | TRZAW (wheat) damage, scale of 0-10 [10, 15] | ABUTH (Abutilon theophrasti Medicus) herbicidal efficacy, scale of 0-10 [11, 16] | AESIN (Aeschynomene indica) herbicidal efficacy, scale of 0-10 [12, 16] | IPOAN (Quamoclit pennata) herbicidal efficacy, scale of 0-10 [13, 16] | XANST (Xanthium strumarium) herbicidal efficacy, scale of 0-10 [14, 16] | other results
1 | Nc1cc(C2CC(Br)=NO2)nc(C(=O)OCc2ccc(Br)cc2)c1Cl (stereo not shown) [Compound 91, 4-bromobenzyl 4-amino-6-(3-bromo-4,5-dihydroisoxazol-5-yl)-3-chloropicolinate] | 0 | 0 | 0 | 10 | 6 | 2 | 6 | 0 | 0 | 0 | 5 | 6 | 5 | 10 | 
2 | Nc1c(Cl)c(F)nc(OCC(=O)O)c1Cl [fluroxypyr, reference compound] | 4 | 8 | 3 | 7 | 10 | 9 | 9 | 3 | 3 | 0 | 7 | 3 | 6 | 10 | PRE ZEAMX (maize), damage score ([1]; Table 3, 200 g/ha): 3; PRE ORYSA (rice), damage score ([2]; Table 3, 200 g/ha): 8; PRE TRZAW (wheat), damage score ([3]; Table 3, 200 g/ha): 3; PRE ABUTH (Abutilon theophrasti Medicus), efficacy score ([4]; Table 3, 200 g/ha): 7; PRE AESIN (Aeschynomene indica), efficacy score ([5]; Table 3, 200 g/ha): 9; PRE IPOAN (Quamoclit pennata), efficacy score ([6]; Table 3, 200 g/ha): 9; PRE XANST (Xanthium strumarium), efficacy score ([7]; Table 3, 200 g/ha): 9; ZEAMX (maize) damage, scale of 0-10 ([8]; spray amount 200 g/ha, Table 5): 0; ORYSA (rice) damage, scale of 0-10 ([9]; spray amount 200 g/ha, Table 5): 4; TRZAW (wheat) damage, scale of 0-10 ([10]; spray amount 200 g/ha, Table 5): 3; ABUTH (Abutilon theophrasti Medicus) herbicidal efficacy, scale of 0-10 ([11]; spray amount 200 g/ha, Table 5): 10; AESIN (Aeschynomene indica) herbicidal efficacy, scale of 0-10 ([12]; spray amount 200 g/ha, Table 5): 10; IPOAN (Quamoclit pennata) herbicidal efficacy, scale of 0-10 ([13]; spray amount 200 g/ha, Table 5): 8; XANST (Xanthium strumarium) herbicidal efficacy, scale of 0-10 ([14]; spray amount 200 g/ha, Table 5): 10
3 | Nc1cc(C2CC(Br)=NO2)nc(C(=O)OCc2ccc(C(F)(F)F)cc2)c1Cl (stereo not shown) [Compound 88, 4-trifluoromethylbenzyl 4-amino-6-(3-bromo-4,5-dihydroisoxazol-5-yl)-3-chloropicolinate] | 0 | 0 | 0 | 5 | 10 | 3 | 9 | 0 | 0 | 0 | 5 | 8 | 6 | 10 | 
4 | Nc1cc(C2CC(Cl)=NO2)nc(C(=O)OCc2ccccc2)c1Cl (stereo not shown) [Compound 95, benzyl 4-amino-3-chloro-6-(3-chloro-4,5-dihydroisoxazol-5-yl)picolinate] | 0 | 6 | 0 | 10 | 10 | 0 | 10 | 1 | 1 | 1 | 10 | 10 | 8 | 10 | 
5 | Nc1cc(C2CC(Br)=NO2)nc(C(=O)O)c1Cl (stereo not shown) [Compound 34, 4-amino-3-chloro-6-(3-bromo-4,5-dihydroisoxazol-5-yl)picolinic acid] | 0 | 0 | 0 | 9 | 10 | 10 | 10 | 0 | 2 | 0 | 6 | 10 | 3 | 10 | 
6 | Nc1cc(C2CC(Br)=NO2)nc(C(=O)Oc2ccccc2)c1Cl (stereo not shown) [Compound 85, phenyl 4-amino-3-chloro-6-(3-bromo-4,5-dihydroisoxazol-5-yl)picolinate] | 0 | 0 | 0 | 8 | 10 | 6 | 10 | 0 | 0 | 0 | 5 | 9 | 5 | 10 | 
7 | Nc1cc(C2CC(Br)=NO2)nc(C(=O)OCc2ccccc2)c1Cl (stereo not shown) [Compound 86, benzyl 4-amino-3-chloro-6-(3-bromo-4,5-dihydroisoxazol-5-yl)picolinate] | 0 | 0 | 0 | 3 | 6 | 3 | 2 | 0 | 3 | 0 | 4 | 2 | 5 | 8 | 
